According to ChEMBL document CHEMBL1154080, “2D-QSAR and 3D-QSAR/CoMFA analyses of the N-terminal substituted anthranilic acid based CCK(1) receptor antagonists: 'Hic Rhodus, hic saltus'” (Bioorg Med Chem, 2009):

Columns and labels:
[1] = (§1) Displacement of [125I]-CCK8 from CCK2 receptor in guinea pig cerebral cortex; assay type: tissue-based, Cavia porcellus
[2] = target: T1, Cholecystokinin receptor type A (Rattus norvegicus, UniProt P30551); test: Displacement of [125I]-CCK8 from CCK1 receptor in rat pancreatic acinar cells
T1 sequence (P30551 whole entry): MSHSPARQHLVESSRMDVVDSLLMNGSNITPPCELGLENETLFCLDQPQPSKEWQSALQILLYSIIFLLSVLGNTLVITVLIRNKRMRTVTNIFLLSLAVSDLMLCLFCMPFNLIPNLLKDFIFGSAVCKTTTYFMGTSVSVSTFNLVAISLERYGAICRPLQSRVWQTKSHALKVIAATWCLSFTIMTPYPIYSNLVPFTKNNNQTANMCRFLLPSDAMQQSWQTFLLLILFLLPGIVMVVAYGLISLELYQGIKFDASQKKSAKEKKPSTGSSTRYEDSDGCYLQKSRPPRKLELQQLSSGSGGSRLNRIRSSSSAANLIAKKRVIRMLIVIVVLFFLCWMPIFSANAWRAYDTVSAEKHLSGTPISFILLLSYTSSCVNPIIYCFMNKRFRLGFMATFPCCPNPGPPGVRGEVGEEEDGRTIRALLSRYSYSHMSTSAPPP

[3] = organism: Cavia porcellus; test: Displacement of [125I]-CCK8 from CCK2 receptor in guinea pig cerebral cortex at 30 uM; assay type: tissue-based
[4] = target: T2, Cholecystokinin receptor type A (Rattus norvegicus) (UniProt P30551); test: Displacement of [125I]-CCK8 from CCK1 receptor in rat pancreatic acinar cells 10 uM
T2 sequence (whole entry): T1 sequence (P30551 whole entry)

[5] = target: T2, Cholecystokinin receptor type A (Rattus norvegicus); test: Displacement of [125I]-CCK8 from CCK1 receptor in rat pancreatic acinar cells 30 uM
[6] = target: T2, Cholecystokinin receptor type A (Rattus norvegicus); test: Displacement of [125I]-CCK8 from CCK1 receptor in rat pancreatic acinar cells at 3 uM
[7] = organism: Cavia porcellus; test: Displacement of [125I]-CCK8 from CCK2 receptor in guinea pig cerebral cortex at 10 uM; assay type: tissue-based
[8] = organism: Cavia porcellus; test: Displacement of [125I]-CCK8 from CCK2 receptor in guinea pig cerebral cortex at 3 uM; assay type: tissue-based
[9] = target: T2, Cholecystokinin receptor type A (Rattus norvegicus); test: Displacement of [125I]-CCK8 from CCK1 receptor in rat pancreatic acinar cells at 1 uM
[10] = organism: Cavia porcellus; test: as §1; assay type: tissue-based; conditions: concentration not given here

Row | Structure (SMILES) | IC50 [1] [µM] | IC50 [2] [nM] | other results
1 | O=C(Nc1ccccc1C(=O)NC(Cc1ccccc1)C(=O)O)c1cc2cc(F)ccc2[nH]1 (racemic) | 10.6 | 314 | 
2 | CC(C)(C)CC(=O)Nc1ccccc1C(=O)NC(Cc1ccccc1)C(=O)O (racemic) |  |  | inhibition [3]: 37%; inhibition [4]: < 20%
3 | O=C(Nc1ccccc1C(=O)NC(Cc1ccccc1)C(=O)O)c1cc2cc([N+](=O)[O-])ccc2[nH]1 (racemic) |  | 3550 | inhibition [3]: 31%
4 | O=C(Nc1ccccc1C(=O)NC(Cc1ccccc1)C(=O)O)c1cc2cc(Cl)ccc2[nH]1 (racemic) |  | 1840 | inhibition [3]: 31%
5 | O=C(NC(Cc1ccccc1)C(=O)O)c1ccccc1NS(=O)(=O)c1ccc2ccccc2c1 (racemic) | 7.31 |  | inhibition [4]: < 20%
6 | O=C(CC12CC3CC(CC(C3)C1)C2)Nc1ccccc1C(=O)NC(Cc1ccccc1)C(=O)O (racemic) | 15.4 |  | inhibition [5]: 51%
7 | O=C(/C=C/c1ccccc1[N+](=O)[O-])Nc1ccccc1C(=O)NC(Cc1ccccc1)C(=O)O (racemic) |  |  | inhibition [3]: 46%; inhibition [6]: < 20%
8 | O=C(Nc1ccccc1C(=O)NC(Cc1ccccc1)C(=O)O)c1cccs1 (racemic) |  | 2560 | inhibition [3]: 24%
9 | O=C(Nc1ccccc1C(=O)NC(Cc1ccccc1)C(=O)O)c1cc2cc(F)cc(F)c2[nH]1 (racemic) | 9.4 |  | inhibition [4]: 59%
10 | O=C(Nc1ccccc1C(=O)NC(Cc1ccccc1)C(=O)O)c1cc2ccc(F)cc2[nH]1 (racemic) | 36.8 | 294 | 
11 | O=C(Nc1ccccc1C(=O)NC(Cc1ccccc1)C(=O)O)c1ccccn1 (racemic) |  |  | inhibition [3]: 31%; inhibition [6]: < 20%
12 | Cc1cccc2cc(C(=O)Nc3ccccc3C(=O)NC(Cc3ccccc3)C(=O)O)[nH]c12 (racemic) | 10.2 | 671 | 
13 | O=C(NC(Cc1ccccc1)C(=O)O)c1ccccc1NC(=O)C12CC3CC(CC(C3)C1)C2 (racemic) | 14.5 |  | inhibition [4]: < 20%
14 | O=C(Cc1c[nH]c2ccccc12)Nc1ccccc1C(=O)NC(Cc1ccccc1)C(=O)O (racemic) |  |  | inhibition [3]: 23%; inhibition [4]: < 20%
15 | O=C(Nc1ccccc1C(=O)NC(Cc1ccccc1)C(=O)O)C1=CC2CCCC2N1 (racemic) | 60.5 | 13100 | 
16 | O=C(Nc1ccccc1C(=O)NC(Cc1ccccc1)C(=O)O)c1ccncc1 (racemic) |  |  | inhibition [3]: 26%; inhibition [6]: < 20%
17 | O=C(CCc1ccccc1)Nc1ccccc1C(=O)NC(Cc1ccccc1)C(=O)O (racemic) |  |  | inhibition [3]: 37%; inhibition [4]: < 20%
18 | Cn1cccc1C(=O)Nc1ccccc1C(=O)NC(Cc1ccccc1)C(=O)O (racemic) |  |  | inhibition [6]: 21%
19 | O=C(Nc1ccccc1C(=O)NC(Cc1ccccc1)C(=O)O)c1cccnc1 (racemic) |  |  | inhibition [3]: 44%; inhibition [6]: < 20%
20 | O=C(Nc1ccccc1C(=O)NC(Cc1ccccc1)C(=O)O)c1cnccn1 (racemic) |  |  | inhibition [3]: < 20%; inhibition [6]: < 20%

Row | Structure (SMILES) | IC50 [1] [µM] | IC50 [2] [nM] | other results
21 | O=C(Nc1ccccc1C(=O)NC(Cc1ccccc1)C(=O)O)c1cc2cccc(F)c2[nH]1 (racemic) | 18.7 | 159 | 
22 | Cc1ccc2[nH]c(C(=O)Nc3ccccc3C(=O)NC(Cc3ccccc3)C(=O)O)cc2c1 (racemic) | 4.2 | 2790 | 
23 | O=C(Nc1ccccc1C(=O)NC(Cc1ccccc1)C(=O)O)C1=Cc2ccccc2C1 (racemic) |  |  | inhibition [7]: < 20%
24 | O=C(Nc1ccccc1C(=O)N[C@@H](Cc1ccccc1)C(=O)O)c1cc2cc(F)ccc2[nH]1 |  | 30100 | inhibition [3]: 20%
25 | COc1cc2cc(C(=O)Nc3ccccc3C(=O)NC(Cc3ccccc3)C(=O)O)[nH]c2cc1OC (racemic) |  |  | inhibition [8]: < 20%; inhibition [9]: < 20%
26 | O=C(Cc1ccccc1)Nc1ccccc1C(=O)NC(Cc1ccccc1)C(=O)O (racemic) |  |  | inhibition [3]: 36%; inhibition [4]: < 20%
27 | O=C(Nc1ccccc1C(=O)NC(Cc1ccccc1)C(=O)O)c1ccc2[nH]ccc2c1 (racemic) |  |  | inhibition [4]: 41%
28 | O=C(Nc1ccccc1C(=O)NC(Cc1ccccc1)C(=O)O)c1ccco1 (racemic) |  |  | inhibition [3]: 27%; inhibition [6]: 24%
29 | COc1ccc2[nH]c(C(=O)Nc3ccccc3C(=O)NC(Cc3ccccc3)C(=O)O)cc2c1 (racemic) | 17.1 |  | inhibition [6]: 42%
30 | O=C(Nc1ccccc1C(=O)N[C@H](Cc1ccccc1)C(=O)O)c1cc2cccc(F)c2[nH]1 | 19.8 | 55 | 
31 | O=C(Nc1ccccc1C(=O)NC(Cc1ccccc1)C(=O)O)c1ccc[nH]1 (racemic) |  |  | inhibition [6]: < 20%
32 | O=C(NC(Cc1ccccc1)C(=O)O)c1ccccc1NS(=O)(=O)c1cccc2ccccc12 (racemic) | 5.9 |  | inhibition [4]: < 20%
33 | O=C(Nc1ccccc1C(=O)NC(Cc1ccccc1)C(=O)O)c1cc2c([nH]1)CCCC2 (racemic) | 70 |  | 
34 | O=C(Nc1ccccc1C(=O)NC(Cc1ccccc1)C(=O)O)c1cc2cc(OCc3ccccc3)ccc2[nH]1 (racemic) |  |  | inhibition [8]: < 20%; inhibition [9]: < 20%
35 | O=C(Nc1ccccc1C(=O)NC(Cc1ccccc1)C(=O)O)c1cc2cccc(C(F)(F)F)c2[nH]1 (racemic) | 11.2 | 538 | 
36 | O=C(CCc1c[nH]c2ccccc12)Nc1ccccc1C(=O)NC(Cc1ccccc1)C(=O)O (racemic) | 13.4 |  | 
37 | O=C(/C=C/c1ccccc1)Nc1ccccc1C(=O)NC(Cc1ccccc1)C(=O)O (racemic) |  |  | inhibition [3]: 49%
38 | Cn1c(C(=O)Nc2ccccc2C(=O)NC(Cc2ccccc2)C(=O)O)cc2cc([N+](=O)[O-])ccc21 (racemic) |  | 1110 | inhibition [8]: < 20%
39 | CC(C)(C)C(=O)Nc1ccccc1C(=O)NC(Cc1ccccc1)C(=O)O (racemic) |  |  | inhibition [3]: 24%; inhibition [4]: < 20%

The next lines start with results.

Row | IC50 [1] [µM] | IC50 [2] [nM] | Structure (SMILES) | other results
40 | 16.4 |  | O=C(Nc1ccccc1C(=O)NC(Cc1ccccc1)C(=O)O)c1cc2ccccc2[nH]1 (racemic) | 
41 | 15 |  | O=C(NC(Cc1ccccc1)C(=O)O)c1ccccc1NC(=O)c1ccnc2ccccc12 (racemic) | inhibition [6]: < 20%
42 | 17 | 106 | O=C(Nc1ccccc1C(=O)N[C@H](Cc1ccccc1)C(=O)O)c1cc2ccccc2[nH]1 | 
43 |  | 13300 | O=C(NC(Cc1ccccc1)C(=O)O)c1ccccc1NC(=O)c1nccc2ccccc12 (racemic) | inhibition [3]: 53%
44 | 13.7 | 891 | O=C(Nc1ccccc1C(=O)NC(Cc1ccccc1)C(=O)O)c1cc2ccccc2o1 (racemic) | 
45 | 14.6 |  | O=C(Nc1ccccc1C(=O)NC(Cc1ccccc1)C(=O)O)c1ccc2ccccc2n1 (racemic) | inhibition [4]: 48%
46 |  | 10200 | O=C(Nc1ccccc1C(=O)N[C@@H](Cc1ccccc1)C(=O)O)c1cc2ccccc2[nH]1 | inhibition [10]: 52%
47 | 9.6 | 937 | O=C(Nc1ccccc1C(=O)NC(Cc1ccccc1)C(=O)O)c1cc2c(F)cccc2[nH]1 (racemic) | 
48 | 10 |  | Cn1c(C(=O)Nc2ccccc2C(=O)NC(Cc2ccccc2)C(=O)O)cc2ccccc21 (racemic) | 
49 | 18.7 |  | O=C(Nc1ccccc1C(=O)NC(Cc1ccccc1)C(=O)O)c1cnc2ccccc2c1 (racemic) | 
50 | 6.57 |  | O=C(NC(Cc1ccccc1)C(=O)O)c1ccccc1NC(=O)c1cccc2ccccc12 (racemic) | inhibition [4]: < 20%
51 | 10.3 |  | O=C(Nc1ccccc1C(=O)NC(Cc1ccccc1)C(=O)O)c1nc2ccccc2[nH]1 (racemic) | 
52 | 67.9 | 151 | O=C(Nc1ccccc1C(=O)N[C@H](Cc1ccccc1)C(=O)O)c1cc2cc(F)ccc2[nH]1 | 
53 | 9.8 | 2060 | Cc1c(C(=O)Nc2ccccc2C(=O)NC(Cc2ccccc2)C(=O)O)[nH]c2ccccc12 (racemic) | 
54 | 8.9 | 3550 | O=C(Nc1ccccc1C(=O)N[C@@H](Cc1ccccc1)C(=O)O)c1cc2cccc(F)c2[nH]1 | 
55 | 13.7 |  | CC1=C(C(=O)Nc2ccccc2C(=O)NC(Cc2ccccc2)C(=O)O)Cc2ccccc21 (racemic) | 
56 | 30.2 |  | O=C(NC(Cc1ccccc1)C(=O)O)c1ccccc1NC(=O)c1c[nH]c2ccccc12 (racemic) | 
57 | 10.8 |  | O=C(Nc1ccccc1C(=O)NC(Cc1ccccc1)C(=O)O)c1cc2ccccc2s1 (racemic) | 
